From ChEMBL document CHEMBL1145133, “Thienyl and phenyl alpha-halomethyl ketones: new inhibitors of glycogen synthase kinase (GSK-3beta) from a library of compound searching” (J Med Chem, 2003)
pIC50: −log10 of the molar value.

Legend:
[1] = target: T1, cAMP-dependent protein kinase (PKA) (Homo sapiens, UniProt P22694+P17612+P22612); test: Inhibitory activity against protein kinase A (PKA ); format: protein assay
[2] = target: Glycogen synthase kinase-3 beta (Homo sapiens, UniProt P49841); test: Inhibitory activity against glycogen synthase kinase-3 (GSK-3beta).
[3] = target: T1, cAMP-dependent protein kinase (PKA); test: Inhibition of protein kinase A (PKA); format: protein assay

Sequence of Glycogen synthase kinase-3 beta (P49841 whole entry): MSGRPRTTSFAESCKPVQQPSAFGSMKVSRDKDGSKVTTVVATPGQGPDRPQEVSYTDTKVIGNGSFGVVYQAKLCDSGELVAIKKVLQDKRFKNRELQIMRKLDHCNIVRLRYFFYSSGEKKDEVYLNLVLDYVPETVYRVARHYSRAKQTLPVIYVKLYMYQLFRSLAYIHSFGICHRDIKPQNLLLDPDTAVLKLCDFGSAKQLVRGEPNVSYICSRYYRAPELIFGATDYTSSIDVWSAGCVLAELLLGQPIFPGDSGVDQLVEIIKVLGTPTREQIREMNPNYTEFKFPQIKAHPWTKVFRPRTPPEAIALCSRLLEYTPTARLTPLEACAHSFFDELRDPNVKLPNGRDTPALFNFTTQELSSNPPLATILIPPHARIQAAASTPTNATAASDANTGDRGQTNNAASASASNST

Compound	IC50 [1] [µM]	pIC50 [2]	IC50 [3] [µM]
O=C(CBr)c1ccccc1	> 100	5.30	–
O=C(CCl)c1ccc(Cl)s1	> 100	5.00	–
O=C(CCl)c1csc(C(=O)CCl)c1	> 100	5.82	–
Cc1ccsc1C(=O)CCl	–	4.12	–
Cc1ccc(C(=O)CCl)s1	–	< 4.00	–
O=C(CCl)c1cc(Br)c(Br)s1	> 100	6.00	–
O=C(CCl)c1ccc(Br)s1	> 100	5.00	–
O=C(CBr)c1ccc(Br)cc1	> 100	6.30	–
O=C(CCl)c1ccc(Cl)cc1	> 100	5.60	–
O=C(CCl)c1c(Br)sc(Cl)c1Cl	–	5.70	> 100
Cc1c(C(=O)CCl)csc1C(=O)CCl	> 100	5.30	–
CC(=O)c1ccc(C(=O)CCl)s1	–	4.30	–
Cc1sc(C(=O)CCl)cc1C(=O)CCl	–	5.30	–
O=C(CCl)c1cc(Br)cs1	–	5.52	–
O=C(CCl)c1c(Br)sc(Br)c1Br	–	6.00	–
CC(=O)c1csc(C(=O)CCl)c1	> 100	5.10	–
O=C(CCl)c1cc(Cl)c(Cl)s1	–	5.60	–
O=C(CCl)c1cscc1Cl	> 100	4.60	–
Cc1cc(C(=O)CCl)c(C)s1	–	< 4.00	–
O=C(CCl)c1cc(Cl)sc1Cl	> 100	5.30	–
O=C(CCl)c1scc(Br)c1Br	> 100	6.30	–
O=C(CCl)c1cccs1	–	4.30	–
O=C(CBr)c1ccc(-c2ccccc2)cc1	> 100	5.60	–
Cc1csc(C(=O)CCl)c1	–	< 4.00	–
O=C(CCl)c1ccccc1 [PHENACYL CHLORIDE]	–	4.30	–
